Measurements reported in patent US20240270736A1, “MACROCYCLIC HETEROCYCLES AND USES THEREOF” (Kumquat Biosciences Inc., priority 2022, published 2024).
pIC50: −log10 of the molar value.

Experiments:
Type in all cases: binding
KRAS G12D = target: T1, KRAS G12D (Homo sapiens, UniProt P01116, G12D); assay: HTRF assay, interaction of KRAS G12D with SOS1; conditions: Ras::SOS1 interaction, read-out: Inhibition of KRAS G12D (IC50)
T1 construct: made in house; host or cells: E. coli, e.g. BL21 (DE3)
Excerpt: (§1) This assay can be also used to assess a selective inhibition or reduction of signaling output of a mutant Ras protein relative to a wildtype, or relative to a different mutant Ras protein. For example, the equilibrium interaction of wildtype Kras or K-Ras mutant (e.g., wildtype or a mutant thereof) with SOS1 (e.g., hSOS1) can be assessed as a proxy or an indication for a subject compound's ability to bind and inhibit Ras protein. The HTRF assay detects from (i) a fluorescence resonance energy transfer (FRET) donor (e.g., antiGST-Europium) that is bound to GST-tagged K-Ras mutant to (ii) a FRET acceptor (e.g., anti-6His-XL665) bound to a His-tagged hSOS1.
(§2) The assay buffer can contain ˜5 mM HEPES pH 7.4, ˜150 mM NaCl, ˜ 1 mM DTT, 0.05% BSA and 0.0025% (v/v) Igepal. A Ras working solution is prepared in an assay buffer containing typically a suitable amount of the protein construct (e.g., GST-tagged K-Ras mutant) and the FRET donor (e.g., antiGST-Eu(K) from Cisbio, France). A SOS1 working solution is prepared in an assay buffer containing suitable amount of the protein construct (e.g., His-hSOS1) and the FRET acceptor (e.g., anti-6His-XL665 from Cisbio, France). A suitable amount of the protein construct will depend on the range of activity or range of IC50 values being detected or under investigation. For detecting an IC50 within a range of 500 nM, the protein constructs of the same range of molarity can be utilized.
(§3) A fixed volume of DMSO with or without test compound is transferred into a 384-well plate. Ras working solution is added to all wells of the test plate. SOS1 working solution is added to all wells except for those that are subsequently filled with inhibitor control solution. Upon incubation for about 10 minutes or longer, the fluorescence is measured with a M1000Pro plate reader (Tecan) using HTRF detection (excitation 337 nm, emission 1: 620 nm, emission 2: 665 nm). Compounds are tested in duplicate at different concentrations (for example, 10 μM, 2.5 μM, 0.63 μM, 0.16 μM, 0.04 μM, 0.01 μM test compound). The ratiometric data (i.e., emission 2 divided by emission 1) is used to calculate IC50 values against Ras using GraphPad Prism (GraphPad software). Signaling output measured in terms of IC50 values can be obtained and a ratio of IC50 against one mutant relative to another mutant can be calculated. For instance, a selective reduction of K-Ras G12D signaling output can be evidenced by a ratio greater than one. In particular, a selective reduction of K-Ras G12D signaling relative to K-Ras WT signaling is evidenced if the ratio of IC50 (against K-Ras WT) to IC50 (against K-Ras G12D) is greater than 1.

KRAS G12V = target: T2, KRAS G12V (Homo sapiens, UniProt P01116, G12V); assay: HTRF assay, interaction of KRAS G12V with SOS1; conditions: Ras::SOS1 interaction, read-out: Inhibition of KRAS G12V (IC50)
T2 construct: made in house; host or cells: E. coli, e.g. BL21 (DE3)
Excerpt: as §1, §2, §3

wildtype KRAS = target: T3, wildtype KRAS (Homo sapiens, UniProt P01116); assay: HTRF assay, interaction of wildtype KRAS with SOS1; conditions: Ras::SOS1 interaction, read-out: Inhibition of KRAS WT (IC50)
T3 construct: made in house; host or cells: E. coli, e.g. BL21 (DE3)
Excerpt: as §1, §2, §3

T3 sequence (P01116 1-188 isoform P01116-2): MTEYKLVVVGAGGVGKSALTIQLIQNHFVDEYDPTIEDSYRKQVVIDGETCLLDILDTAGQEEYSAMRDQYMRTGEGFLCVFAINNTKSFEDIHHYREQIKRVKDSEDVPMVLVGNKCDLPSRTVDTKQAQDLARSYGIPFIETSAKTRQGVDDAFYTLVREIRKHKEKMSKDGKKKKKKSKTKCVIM
T1 sequence (P01116 1-188 isoform P01116-2 G12D): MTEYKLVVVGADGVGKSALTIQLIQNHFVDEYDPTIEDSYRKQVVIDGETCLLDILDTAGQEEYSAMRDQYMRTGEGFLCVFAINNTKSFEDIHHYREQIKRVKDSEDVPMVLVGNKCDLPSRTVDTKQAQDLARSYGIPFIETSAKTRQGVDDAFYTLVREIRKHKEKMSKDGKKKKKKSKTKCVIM
T2 sequence (P01116 1-188 isoform P01116-2 G12V): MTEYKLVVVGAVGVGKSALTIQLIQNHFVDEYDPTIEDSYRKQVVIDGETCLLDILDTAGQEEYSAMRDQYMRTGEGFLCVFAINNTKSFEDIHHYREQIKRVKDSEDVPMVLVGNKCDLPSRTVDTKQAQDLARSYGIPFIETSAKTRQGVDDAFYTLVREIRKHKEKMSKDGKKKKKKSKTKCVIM

| Compound | pIC50 (KRAS G12D) | pIC50 (KRAS G12V) | pIC50 (wildtype KRAS) |
| --- | --- | --- | --- |
| CN1CCCCCN2CCOc3c(Cl)c(-c4ccc(F)c5sc(N)c(C#N)c45)c(F)c4nc(nc2c34)OCC2(CC2)C1 [Compound 149, 2-amino-4-(17′-chloro-19′-fluoro-7′-methyl-7′,8′,9′,10′,11′,12′,14′,15′-octahydro-4′H,6′H-spiro[cyclopropane-1,5′-[2,20](azeno)benzo[6,7][1,4]oxazepino[5,4-d][1]oxa[3,5,11]triazacyclotetradecin]-18′-yl)-7-fluorobenzo[b]thiophene-3-carbonitrile] | ≥ 5.30 | ≥ 5.30 | ≥ 5.30 |
| CN1CCCCCCN2CCOc3c(Cl)c(-c4ccc(F)c5sc(N)c(C#N)c45)c(F)c4nc(nc2c34)OCCC1 [Compound 153, 2-amino-4-(18-chloro-20-fluoro-7-methyl-4,5,6,7,8,9,10,11,12,13,15,16-dodecahydro-2,21-(azeno)benzo[6,7][1,4]oxazepino[5,4-d][1]oxa[3,5,12]triazacyclopentadecin-19-yl)-7-fluorobenzo[b]thiophene-3-carbonitrile] | ≥ 5.30 | ≥ 5.30 | ≥ 5.30 |
| CN(C)CC1CCCCCN2c3nc(nc4c(F)c(-c5ccc(F)c6sc(N)c(C#N)c56)c(Cl)c(c34)OC[C@@H]2C(F)F)O1 (stereo partly drawn) [Compound 156, 2-amino-4-((11R)-14-chloro-11-(difluoromethyl)-4-((dimethylamino)methyl)-16-fluoro-4,5,6,7,8,9,11,12-octahydro-2,17-(azeno)benzo[6,7][1,4]oxazepino[5,4-d][1]oxa[3,5]diazacycloundecin-15-yl)-7-fluorobenzo[b]thiophene-3-carbonitrile] | ≥ 5.30 | ≥ 5.30 | ≥ 5.30 |
| CNCC1CCCCCCN2CCOc3c(Cl)c(-c4ccc(F)c5sc(N)c(C#N)c45)c(F)c4nc(nc2c34)O1 (stereo not drawn) [Compound 157, 2-amino-4-(15-chloro-17-fluoro-4-((methylamino)methyl)-5,6,7,8,9,10,12,13-octahydro-4H-2,18-(azeno)benzo[6,7][1,4]oxazepino[5,4-d][1]oxa[3,5]diazacyclododecin-16-yl)-7-fluorobenzo[b]thiophene-3-carbonitrile] | ≥ 5.30 | ≥ 5.30 | ≥ 5.30 |
| CN(C)CC1CCNC(=O)CN2CCOc3c(Cl)c(-c4ccc(F)c5sc(N)c(C#N)c45)c(F)c4nc(nc2c34)O1 (stereo not drawn) [Compound 158, 2-amino-4-(14-chloro-4-((dimethylamino)methyl)-16-fluoro-8-oxo-4,5,6,7,8,9,11,12-octahydro-2,17-(azeno)benzo[6,7][1,4]oxazepino[5,4-d][1]oxa[3,5,8]triazacycloundecin-15-yl)-7-fluorobenzo[b]thiophene-3-carbonitrile] | ≥ 5.30 | ≥ 5.30 | ≥ 5.30 |
| CN1CCC[C@H]1[C@@H]1CC/C=C\CCN2CCOc3c(Cl)c(-c4ccc(F)c5sc(N)c(C#N)c45)c(F)c4nc(nc2c34)O1 [Compound 159, 2-amino-4-((4S,Z)-15-chloro-17-fluoro-4-((S)-1-methylpyrrolidin-2-yl)-5,6,9,10,12,13-hexahydro-4H-2,18-(azeno)benzo[6,7][1,4]oxazepino[5,4-d][1]oxa[3,5]diazacyclododecin-16-yl)-7-fluorobenzo[b]thiophene-3-carbonitrile] | ≥ 5.30 | ≥ 5.30 | ≥ 5.30 |

Results, then the molecule that gave them:

| pIC50 (KRAS G12D) | pIC50 (KRAS G12V) | pIC50 (wildtype KRAS) | Compound |
| --- | --- | --- | --- |
| ≥ 5.30 | ≥ 5.30 | ≥ 5.30 | CNCC1CCCCCN2CCOc3c(Cl)c(-c4ccc(F)c5sc(N)c(C#N)c45)c(F)c4nc(nc2c34)O1 (stereo not drawn) [Compound 133, 2-amino-4-(14-chloro-16-fluoro-4-((methylamino)methyl)-4,5,6,7,8,9,11,12-octahydro-2,17-(azeno)benzo[6,7][1,4]oxazepino[5,4-d][1]oxa[3,5]diazacycloundecin-15-yl)-7-fluorobenzo[b]thiophene-3-carbonitrile] |
| ≥ 5.30 | ≥ 5.30 | ≥ 5.30 | CN1CCC[C@H]1C1CCCCCCN2CCOc3c(Cl)c(-c4ccc(F)c5sc(N)c(C#N)c45)c(F)c4nc(nc2c34)O1 (stereo partly drawn) [Compound 138, 2-amino-4-(15-chloro-17-fluoro-4-((S)-1-methylpyrrolidin-2-yl)-5,6,7,8,9,10,12,13-octahydro-4H-2,18-(azeno)benzo[6,7][1,4]oxazepino[5,4-d][1]oxa[3,5]diazacyclododecin-16-yl)-7-fluorobenzo[b]thiophene-3-carbonitrile] |
| ≥ 5.30 | ≥ 5.30 | ≥ 5.30 | CNCC1C/C=C\CCN2CCOc3c(Cl)c(-c4ccc(F)c5sc(N)c(C#N)c45)c(F)c4nc(nc2c34)O1 (stereo not drawn) [Compound 141, (Z)-2-amino-4-(14-chloro-16-fluoro-4-((methylamino)methyl)-4,5,8,9,11,12-hexahydro-2,17-(azeno)benzo[6,7][1,4]oxazepino[5,4-d][1]oxa[3,5]diazacycloundecin-15-yl)-7-fluorobenzo[b]thiophene-3-carbonitrile] |
| ≥ 5.30 | ≥ 5.30 | ≥ 5.30 | CN1CCCOc2nc3c4c(c(Cl)c(-c5ccc(F)c6sc(N)c(C#N)c56)c(F)c4n2)OCCN3CCC1 [Compound 143, 2-amino-4-(15-chloro-17-fluoro-7-methyl-5,6,7,8,9,10,12,13-octahydro-4H-2,18-(azeno)benzo[6,7][1,4]oxazepino[5,4-d][1]oxa[3,5,9]triazacyclododecin-16-yl)-7-fluorobenzo[b]thiophene-3-carbonitrile] |
| ≥ 5.30 | ≥ 5.30 | ≥ 5.30 | CN(C)CC1CNC(=O)CN2CCOc3c(Cl)c(-c4ccc(F)c5sc(N)c(C#N)c45)c(F)c4nc(nc2c34)OC1 (stereo not drawn) [Compound 145, 2-amino-4-(14-chloro-5-((dimethylamino)methyl)-16-fluoro-8-oxo-4,5,6,7,8,9,11,12-octahydro-2,17-(azeno)benzo[6,7][1,4]oxazepino[5,4-d][1]oxa[3,5,8]triazacycloundecin-15-yl)-7-fluorobenzo[b]thiophene-3-carbonitrile] |
